Reference: patent EP4116414A1 (Centre National de la Recherche Scientifique, dated 2023)

T1: YjgC 6his-tagged in N-terminal (His-YjgC), Bacillus subtilis 168 (Bacillus subtilis 168, UniProt O34720 1-985)
T1 construct: Expressed from the yjgCD operon under a xylose inducible promoter in B. subtilis strain 4088 and purified on Ni-NTA; Carries Mo-bisPGD and Fe-S cofactors; also called 6his-YjgC; catalytic subunit of YjgCD; not shown: N-terminal 6-his tag followed by a TEV cleavage site
T1 sequence: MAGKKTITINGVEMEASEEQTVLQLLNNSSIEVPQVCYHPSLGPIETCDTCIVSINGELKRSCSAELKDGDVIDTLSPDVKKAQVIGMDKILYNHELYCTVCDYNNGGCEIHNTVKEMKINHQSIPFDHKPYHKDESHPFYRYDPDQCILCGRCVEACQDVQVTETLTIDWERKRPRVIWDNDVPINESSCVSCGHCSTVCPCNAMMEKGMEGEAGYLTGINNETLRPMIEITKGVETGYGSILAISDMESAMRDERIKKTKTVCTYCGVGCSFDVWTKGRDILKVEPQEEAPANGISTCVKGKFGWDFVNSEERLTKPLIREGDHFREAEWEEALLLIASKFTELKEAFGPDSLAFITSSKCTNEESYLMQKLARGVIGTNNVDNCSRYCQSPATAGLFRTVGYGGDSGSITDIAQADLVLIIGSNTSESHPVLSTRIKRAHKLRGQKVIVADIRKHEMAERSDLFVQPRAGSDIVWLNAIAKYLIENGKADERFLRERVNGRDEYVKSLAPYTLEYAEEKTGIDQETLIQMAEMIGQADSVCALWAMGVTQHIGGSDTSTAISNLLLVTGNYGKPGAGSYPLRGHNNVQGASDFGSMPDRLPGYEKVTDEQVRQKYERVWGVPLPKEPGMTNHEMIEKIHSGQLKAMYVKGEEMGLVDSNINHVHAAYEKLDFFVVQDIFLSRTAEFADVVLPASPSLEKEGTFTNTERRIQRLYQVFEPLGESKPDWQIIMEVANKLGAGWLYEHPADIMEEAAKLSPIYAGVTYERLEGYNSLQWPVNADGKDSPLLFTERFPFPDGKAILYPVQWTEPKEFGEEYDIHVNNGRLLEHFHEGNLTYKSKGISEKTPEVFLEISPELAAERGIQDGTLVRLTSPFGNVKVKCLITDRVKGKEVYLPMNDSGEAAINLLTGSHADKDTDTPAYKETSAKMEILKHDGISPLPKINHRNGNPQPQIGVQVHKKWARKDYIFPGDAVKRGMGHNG


Experiments:
[1] = target: Bacillus subtilis 168 formate dehydrogenase YjgCD heterodimer, wild type (6his-YjgC, SEQ ID NO: 1; YjgD, SEQ ID NO: 3) (Bacillus subtilis, UniProt O34720); details: formate oxidation, benzyl viologen as artificial electron acceptor, 25 mM CHES pH 10, 25°C
Protocol: FDH activity was determined using an Avaspec-2048L spectrometer (Avantes), inside an anaerobic glovebox filled with an atmosphere of 100% N2. The experiments were carried out at room temperature (25°C) with stirring.
For formate::benzyl viologen OR measurements, the reduction of 17.5 mM benzyl viologen (BV) was monitored at 600 nm (ε600 nm BV^+ = 7.0945 mM^-1 cm^-1) in 25 mM CHES pH 10 after addition of 50 mM sodium formate. One unit of oxidizing activity is defined as the amount of FDH capable of oxidizing 1 µmol of formate par min per mg of enzyme.
First the yjgCD operon was expressed under the control of an inducible promoter and the YjgC protein to which a 6-histidine tag was added at the N-terminus was purified.

[2] = target: T1, YjgC 6his-tagged in N-terminal …; assay: Ni-NTA affinity purification of His-YjgC, Coomassie-stained SDS-PAGE

Molecule	Kcat ([1]; anaerobic, YjgCD heterodimer MW 132 kDa)	Km ([1]; read-out: KM formate, anaerobic (100% N2)) [mM]	binding result [2]
formate	96,1 ± 4 s^-1	5.1	–
YjgD protein of Bacillus subtilis 168 (other, Untagged and co-expressed with His-YjgC from the yjgCD operon; Predicted monomeric mass 21.3 kDa; also called partner subunit of YjgCD) MAKAIKRIQKIEVTEEDQRKRDLREIEDALIDHKEAILETLHMLGHMNERGVLPLLRGLFGQGDKVLDILVKKADTEETANTLKNLLLLFGTLGMLDVKQLEPLILKVNAGVASAVEQKNSEEKTGYFDIIRSLKDPEINKSITLLFSFLKGMGQDTKELERTTQPPEHQKHHQEPREKRGMNKRD	–	–	binds
